≈ marks a conversion by molar mass, not a printed value. Where two headings read alike, the source gives them in different places.
Legend:
[1] = acute oral toxicity (LD50); settings: in vivo, male rat
Method: The compounds represented by the general formula (I) are low in toxicity to mammals.
Their acute oral toxicities to male rat expressed as LD50 values are shown below.
For example, the LD50 values of the compound No. 1, No. 2, No. 3, No. 8 and No. 12 are 1,000-3,000 mg/kg, 3,000-5,000 mg/kg, more than 5,000 mg/kg, more than 5,000 mg/kg and 1,000-3,000 mg/kg, respectively.

water solubility = format: physicochemical
[2] = system: liver damage induced by carbon tetrachloride; assay: Protective (Controlling) effect on liver damage induced by carbon tetrachloride; format: in vivo, mice (dd strain); settings: 250 mg/kg p.o., CCl4 0.05 ml/kg after 6 h, 24 h; for p-GPT: CCl4 alone >2,100; for Liver Damage Index: average of 5 mice, 0 Normal, 2 Slightly recognized, 4 Clearly observable damage, 6 Heavy damage, CCl4 alone 5.0
Method in brief: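 Six-week-old male dd mice received compound at 250 mg/kg orally in olive oil or diethyleneglycol, then carbon tetrachloride 0.05 ml/kg orally 6 h later.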

[3] = system: liver damage induced by α-naphthyl isothiocyanate (ANIT); assay: Protective effect on liver damage induced by ANIT (Method 1); format: in vivo, mice; settings: Table 3-1, 2 x 250 mg/kg p.o., ANIT 35 mg/kg p.o., 24 h; for Alkaline phosphatase activity: control 3.3, ANIT alone 5.3; for p-GPT: control 7.4, ANIT alone 324.0
Source text: Protective effect on liver damage induced by α-naphthyl isothiocyanate (referred to as "ANIT", hereinafter).
It is well known that experimental cholestasis is accomplished by administration with ANIT in mice and rats, and studied as a cholestasis model in human being.
ANIT and CCl4 induce necrosis in the liver. ANIT causes it as small focci in perilobular parenchyna and CCl4 causes centrilobular parenchymal coagulation necrosis.
From these information, the elevation of plasma GPT activity in these models are thought to have defferent characteristics.
Test compounds, dissolved or suspended in olive oil or diethyleneglycol, were orally administered 2 times at intervals of 3 hrs to mice at the dose of 250 mg/kg. At 3 hrs after the second administration with test compounds, ANIT was administered orally at 35 mg/kg.
Mice were sacrificed at 24 hrs after ANIT administration and blood samples were collected. The blood samples were centrifuged and plasma was obtained.
Plasma GPT activity and alkaline phosphatase activity were determined by Reitman & Frankel's method and Bessey-Lowry's method, respectively. The activity was expressed with Karmen Unit and Bessey-Lowry Unit, respectively.

[4] = system: fatty liver induced by carbon tetrachloride; assay: Protective effect on fatty liver (carbon tetrachloride); format: in vivo, rats (SD strain); settings: percentage of mean value in carbon tetrachloride alone group, 100 mg/kg/day p.o. for 4 days, control 32.0
Method: Carbon tetrachloride also induces fatty liver. Carbon tetrachloride is generally considered to damage microsome and thereby to inhibit protein synthesis and induce fatty liver.
Carbon tetrachloride was subcutaneously administered to 5-6 week-old male rats (SD strain) for 4 days at the dose of 0.5 ml/kg/day.
Simultaneously, the compound of the present invention was orally administered to the rats for 4 days at the dose of 30 mg/kg/day or 100 mg/kg/day.
On the 5th day, the rats were sacrificed by exsanguination.
The controlling (protective) effect was evaluated by determining the content of triglyceride in the liver.
Triglyceride was determined colorimetrically by chromotropic acid method.
Each value represented the percentage of mean value in carbon tetrachloride alone group.

| SMILES | LD50 [1] [mg/kg] | solubility (water solubility; 2% gum arabic aqueous solution, in 2% gum-arabia aqueous solution, read-out: solubility) [µg/mL] | p-GPT [2] [Karmen units] | Liver Damage Index [2] | Alkaline phosphatase activity [3] [B-L.V.] | p-GPT [3] [K.U.] | Triglyceride [4] [%] | solubility (water solubility; water) [µg/mL] | solubility (water solubility; in water at 20° C., read-out: water solubility) [µg/mL] |
| --- | --- | --- | --- | --- | --- | --- | --- | --- | --- |
| COC(=O)C(C(=O)OC)=C1SC(O)C(O)S1 (stereo not shown) [Compound 1] | 1000 to 3000 | 20000 (≈ 75.1 mM) | 23 | 0.0 | 3.9 | 128.0 | 57.5 | – | – |
| CCOC(=O)C(C(=O)OCC)=C1SC(O)C(O)S1 (stereo not shown) [Compound 2, diethyl 4,5-dihydroxy-1,3-dithiolan-2-ylidenemalonate] | 3000 to 5000 | – | 15 | 0.0 | 4.4 | 28.0 | 46.6 | – | – |
| CCCOC(=O)C(C(=O)OCCC)=C1SC(O)C(O)S1 (stereo not shown) [Compound 3] | > 5000 | – | 12 | 0.2 | 4.7 | 53.0 | 39.0 | – | – |
| C=CCOC(=O)C(C(=O)OCC=C)=C1SC(O)C(O)S1 (stereo not shown) [Compound 12, diallyl 4,5-dihydroxy-1,3-dithiolan-2-ylidenemalonate] | 1000 to 3000 | – | 63 | 1.0 | 4.9 | 19.9 | 35.4 | 2200 (≈ 6.91 mM) | – |
| CC(C)OC(=O)C(C(=O)OC(C)C)=C1SC(O)C(O)S1 (stereo not shown) [Compound 23, diisopropyl 4,5-dihydroxy-1,3-dithiolan-2-ylidenemalonate] | – | – | 22.5 | 0.0 | 4.0 | 76.0 | – | – | 2000 (≈ 6.2 mM) |
